From patent US9199941B2, “Pyrazole indanyl carboxamides” (BAYER CROPSCIENCE AG, priority 2012, dated 2015) come the findings set out here.

A short description of series [1]: log P by HPLC on reversed phase columns (EEC directive 79/831 Annex V.A8). It is filed as physicochemical. The settings on record: Table 1, compounds of formula (I); method [a]: LC-MS at pH 2.7, 0.1% formic acid in water / acetonitrile.
The test system of the next series is Pyrenophora teres. Nature of the series: In vivo preventive test on Pyrenophora teres (net blotch on barley). Particulars: preventive spray, barley plants, incubated 48 hours then 12 days; for Eff. %: 500 ppm; for Efficacy: 100 ppm. The procedure:
Barley plants (“Plaisant” variety), sown in starter cups on a 50/50 peat soil-pozzolana substrate and grown at 22° C., are treated at the 1-leaf stage (10 cm height) by spraying with the active ingredient prepared as described above. Plants, used as controls, are treated with the mixture of acetone/tween/DMSO/water not containing the active material. After 24 hours, the plants are contaminated by spraying the leaves with an aqueous suspension of Pyrenophora teres spores (12 000 spores per ml). The spores are collected from a 12-day-old culture.

A further series relates to Puccinia recondita. Description: In vivo preventive test on Puccinia recondita (brown rust on wheat). The settings on record: preventive spray, wheat plants, grading 12 days after contamination. The protocol:
Plants, used as controls, are treated with the mixture of acetone/tween/DMSO/water not containing the active material. After 24 hours, the plants are contaminated by spraying the leaves with an aqueous suspension of Puccinia […] spores (100 000 spores per ml). […] Grading (% of efficacy) is carried out 12 days after the contamination, in comparison with the control plants.

The next series has as its system Uromyces appendiculatus. Nature of the series: In vivo preventive test on Uromyces appendiculatus (bean rust). Particulars: preventive spray, bean plants, grading 11 days after contamination. The procedure: Bean plants (“Saxa” variety), sown in starter cups on a 50/50 peat soil-pozzolana substrate and grown at 24° C., are treated at the 2-leaf stage (9 cm height) by spraying with the active ingredient prepared as described above. Plants, used as controls, are treated with the mixture of acetone/tween/DMSO/water not containing the active material. After 24 hours, the plants are contaminated by spraying the leaves with an aqueous suspension of Uromyces appendiculatus spores (150 000 spores per ml). […] Grading (% of efficacy) is carried out 11 days after the contamination, in comparison with the control plants.

The next series has as its system Alternaria brassicae. Description: In vivo preventive test on Alternaria brassicae (leaf spot on radish). The settings on record: 500 ppm, preventive spray, radish plants, grading 6 days after contamination. The procedure: Radish plants (“Pernod Clair” variety), sown in starter cups on a 50/50 peat soil-pozzolana substrate and grown at 17° C., are treated at the cotyledon stage by spraying with the active ingredient prepared as described above. Plants, used as controls, are treated with the mixture of acetone/tween/DMSO/water not containing the active material. After 24 hours, the plants are contaminated by spraying the cotyledons with an aqueous suspension of Alternaria brassicae spores (50 000 spores per ml). The spores are collected from a 15-day-old culture. […] Grading (% of efficacy) is carried out 6 days after the contamination, in comparison with the control plants.

The subject of the next series is Septoria tritici. Nature of the series: In vivo preventive test on Septoria tritici (leaf spot on wheat). The settings on record: 500 ppm, preventive spray, wheat plants, grading 24 days after contamination. The procedure:
Wheat plants (“Scipion” variety), sown in starter cups on a 50/50 peat soil-pozzolana substrate and grown at 22° C., are treated at the 1-leaf stage (10 cm height) by spraying with the active ingredient prepared as described above. Plants, used as controls, are treated with the mixture of acetone/tween/DMSO/water not containing the active material. After 24 hours, the plants are contaminated by spraying the leaves with an aqueous suspension of cryopreserved Septoria tritici spores (500 000 spores per ml). […] Grading (% of efficacy) is carried out 24 days after the contamination, in comparison with the control plants.

The test system of the next series is Sphaerotheca fuliginea. Nature of the series: In vivo preventive test on Sphaerotheca fuliginea (powdery mildew on cucurbits). Particulars: preventive spray, gherkin plants, grading 12 days after contamination. The protocol:
Gherkin plants (“Vert petit de Paris” variety), sown in starter cups on a 50/50 peat soil-pozzolana substrate and grown at 24° C., are treated at the Z11 cotyledon stage by spraying with the active ingredient prepared as described above. Plants, used as controls, are treated with the mixture of acetone/tween/DMSO/water not containing the active material. After 24 hours, the plants are contaminated by spraying the cotyledons with an aqueous suspension of Sphaerotheca fuliginea spores (100 000 spores per ml). The spores are collected from infected plants. The contaminated gherkin plants are incubated at about 20° C. and at 70-80% relative humidity. Grading (% of efficacy) is carried out 12 days after the contamination, in comparison with the control plants.

In another series the test system is Botrytis cinerea. Description: In vivo preventive test on Botrytis cinerea (grey mould), gherkin. The settings on record: 100 ppm, preventive spray, gherkin plants, grading 4 to 5 days after contamination. The procedure:
Gherkin plants (“Vert petit de Paris” variety), sown in starter cups on a 50/50 peat soil-pozzolana substrate and grown at 24° C., are treated at the Z11 cotyledon stage by spraying with the active ingredient prepared as described above. Plants, used as controls, are treated with the mixture of acetone/tween/DMSO/water not containing the active material. After 24 hours, the plants are contaminated by spraying the cotyledons with an aqueous suspension of cryopreserved Botrytis cinerea spores (50 000 spores per ml). The spores are suspended in a nutrient solution composed of 10 g/L of PDB, 50 g/L of D-Fructose, 2 g/L of NH4NO3 and 1 g/L of KH2PO4. The contaminated gherkin plants are incubated at 17° C. and at 90% relative humidity. Grading (% of efficacy) is carried out 4 to 5 days after the contamination, in comparison with the control plants.

Consider `Cn1cc(C(=O)Nc2cccc3c2CCC32CC2)c(C(F)F)n1` [Example 17], for which the logP in series [1] was 2.96[a]. Also, the Eff. % with Pyrenophora teres turned out to be 70%; in the series on Puccinia recondita (500 ppm), 98%; in the series with Uromyces appendiculatus (500 ppm), 100%.
`CC1CC(CC(C)(C)C)c2cccc(NC(=S)c3cn(C)nc3C(F)F)c21` (stereo not drawn) [Example 42]: the Eff. % is 75% in the series on Alternaria brassicae; 98% in the series with Puccinia recondita (500 ppm); 88% in the series with Septoria tritici; 100% in the series with Sphaerotheca fuliginea (500 ppm); 100% with Uromyces appendiculatus (500 ppm).
Regarding `CC1CC2(CCCCC2)c2cccc(NC(=S)c3cn(C)nc3C(F)F)c21` (stereo not drawn) [Example 53], in series [1], the logP is 4.67[a]. The Eff. % in the series with Botrytis cinerea amounted to 82%; in the series with Puccinia recondita (100 ppm), 100%; with Sphaerotheca fuliginea (100 ppm), 100%; in the series on Uromyces appendiculatus (100 ppm), 100%.
Consider `CC(C)CC1CCc2c(NC(=O)c3cn(C)nc3C(F)F)cccc21` (stereo not drawn) [Example 32], for which, in series [1], the logP is 4.11[a]. For the same compound, the Eff. % was found to be 98% in the series on Puccinia recondita (500 ppm), 71% in the series with Septoria tritici, 98% in the series with Sphaerotheca fuliginea (500 ppm) and 100% with Uromyces appendiculatus (500 ppm).
`CC1CC(C(C)C)c2cccc(NC(=O)c3cn(C)nc3C(F)F)c21` (stereo not drawn) [Example 6]: the logP in series [1] is 3.82[a]. Besides, the Eff. % with Alternaria brassicae was 100%; in the series with Pyrenophora teres, 96%; with Puccinia recondita (500 ppm), 100%; with Septoria tritici it was 92%; with Sphaerotheca fuliginea (500 ppm) it was 97%; with Uromyces appendiculatus (500 ppm), 100%.
As to `CC1CC2(CC2(Cl)Cl)c2cccc(NC(=O)c3cn(C)nc3C(F)F)c21` (stereo not drawn) [Example 3], the logP in series [1] was 3.46[a]. Further, the Eff. % with Pyrenophora teres was 81%; with Puccinia recondita (500 ppm), 94%; with Septoria tritici, 100%; in the series on Sphaerotheca fuliginea (500 ppm), 100%; in the series on Uromyces appendiculatus (500 ppm), 100%.
As for `CCCON=C1CC(C)c2c(NC(=O)c3cn(C)nc3C(F)F)cccc21` (stereo not drawn) [Example 11], the logP in series [1] is 3.26[a]. In addition, the Eff. % came out at 93% in the series on Alternaria brassicae, 83% with Pyrenophora teres, 81% in the series on Puccinia recondita (500 ppm) and 90% in the series on Uromyces appendiculatus (500 ppm).
`CCCON=C1CC(C)c2c(NC(=O)c3c(C)nn(C)c3F)cccc21` (stereo not drawn) [Example 19]: the logP in series [1] was 3.24[a]. Further, the Eff. % in the series on Pyrenophora teres is recorded as 75%; in the series with Puccinia recondita (500 ppm), 81%; in the series on Sphaerotheca fuliginea (500 ppm) it was 89%; in the series on Uromyces appendiculatus (500 ppm), 93%.
Turning to `CCCON=C1CCc2c(NC(=O)c3cn(C)nc3C(F)F)cccc21` [Example 30], in series [1], the logP is 3.15[a]. Besides, the Eff. % is reported as 71% in the series on Puccinia recondita (500 ppm), 85% in the series on Septoria tritici, 90% in the series with Sphaerotheca fuliginea (500 ppm) and 95% in the series with Uromyces appendiculatus (500 ppm).
For the compound `Cc1nn(C)c(F)c1C(=O)Nc1cccc2c1C(C)CC2CC(C)C` (stereo not drawn) [Example 20], the logP in series [1] was 4.32[a]. Also, the Eff. % with Alternaria brassicae is on record as 93%; in the series on Pyrenophora teres, 97%; in the series with Puccinia recondita (500 ppm), 100%; in the series with Septoria tritici, 79%; with Sphaerotheca fuliginea (500 ppm) it was 98%; in the series on Uromyces appendiculatus (500 ppm), 100%.
For the compound `Cn1cc(C(=O)Nc2cccc3c2CCC32OCCO2)c(C(F)F)n1` [Example 12], the logP in series [1] is 1.9[a]. For the same compound, the Eff. % with Alternaria brassicae is on record as 86%; in the series with Puccinia recondita (500 ppm), 83%.
Regarding `CC1CC(CC(C)(C)C)c2cccc(NC(=O)c3cn(C)nc3C(F)F)c21` (stereo not drawn) [Example 18], in series [1], the logP is 4.44[a]. In addition, the Eff. % stood at 83% in the series on Alternaria brassicae; 100% in the series on Puccinia recondita (500 ppm); 93% in the series on Septoria tritici; 100% in the series with Sphaerotheca fuliginea (500 ppm); 100% in the series with Uromyces appendiculatus (500 ppm).
As to `CCON=C1CC(C)c2c(NC(=O)c3cn(C)nc3C(F)F)cccc21` (stereo not drawn) [Example 34], the logP in series [1] was 2.78[a]. The Eff. % in the series with Alternaria brassicae was determined as 86%; with Pyrenophora teres, 83%; with Puccinia recondita (500 ppm) it was 81%; in the series with Septoria tritici, 86%; with Uromyces appendiculatus (500 ppm), 97%.
Turning to `CCON=C1CC(C)c2c(NC(=O)c3c(C)nn(C)c3F)cccc21` (stereo not drawn) [Example 29], in series [1], the logP is 2.76[a]. In addition, the Eff. % in the series on Pyrenophora teres stood at 75%; in the series on Puccinia recondita (500 ppm) it was 81%; in the series on Uromyces appendiculatus (500 ppm), 80%.
On to `CCC1(C)CCc2c(NC(=O)c3cn(C)nc3C(F)F)cccc21` (stereo not drawn) [Example 24], for which the logP in series [1] is 3.62[a]. Also, the Eff. % with Pyrenophora teres is on record as 80%; in the series on Puccinia recondita (500 ppm), 98%; in the series with Septoria tritici it was 92%; in the series on Sphaerotheca fuliginea (500 ppm), 98%; in the series on Uromyces appendiculatus (500 ppm) it was 97%.
Regarding `CC1CC2(CC2)c2cccc(NC(=S)c3cn(C)nc3C(F)(F)F)c21` (stereo not drawn) [Example 41], the Eff. % in the series with Alternaria brassicae was 75%; in the series on Puccinia recondita (500 ppm) it was 100%; in the series on Sphaerotheca fuliginea (500 ppm), 98%; in the series with Uromyces appendiculatus (500 ppm), 100%.
Turning to `CC1CCc2cccc(NC(=O)c3cn(C)nc3C(F)F)c21` (stereo not drawn) [Example 9], the logP in series [1] is 2.78[a]. Besides, the Eff. % is 92% in the series on Alternaria brassicae; 96% in the series with Pyrenophora teres; 100% in the series with Puccinia recondita (500 ppm); 97% with Septoria tritici; 100% in the series with Uromyces appendiculatus (500 ppm). For the same compound, the Efficacy entry in the series with Pyrenophora teres was “at least 70%”.
As to `CON=C1CC(C)c2c(NC(=O)c3c(C)nn(C)c3F)cccc21` (stereo not drawn) [Example 27], in series [1], the logP was 2.33[a]. Further, the Eff. % in the series with Alternaria brassicae worked out at 75%; in the series on Puccinia recondita (500 ppm), 86%.
Turning to `Cn1cc(C(=O)Nc2cccc3c2CCC3C(C)(C)C)c(C(F)F)n1` (stereo not drawn) [Example 28], in series [1], the logP is 3.94[a]. In addition, the Eff. % in the series with Puccinia recondita (500 ppm) is recorded as 100%; with Septoria tritici it was 86%; in the series with Sphaerotheca fuliginea (500 ppm), 100%; with Uromyces appendiculatus (500 ppm), 100%.
Turning to `CC1CC2(CC2)c2cccc(NC(=S)c3cn(C)nc3C(F)F)c21` (stereo not drawn) [Example 38], in series [1], the logP was 4.61[a]. The Eff. % is recorded as 71% in the series on Alternaria brassicae and 83% in the series on Puccinia recondita (500 ppm). This compound gave an Efficacy in the series with Pyrenophora teres of 70%.
As to `CC1CC2(CC2(Cl)Cl)c2cccc(NC(=O)c3cn(C)nc3C(F)F)c21` (stereo not drawn) [Example 4], in series [1], the logP is 3.5[a]. Moreover, the Eff. % in the series on Puccinia recondita (500 ppm), with Septoria tritici, in the series with Sphaerotheca fuliginea (500 ppm) and with Uromyces appendiculatus (500 ppm) was 100% throughout.
For the compound `CC(C)CC1CC(C)c2c(NC(=O)c3cn(C)nc3C(F)F)cccc21` (stereo not drawn) [Example 33], in series [1], the logP is 4.24[a]. The Eff. % was 97% in the series on Alternaria brassicae; 97% with Pyrenophora teres; 98% in the series on Puccinia recondita (500 ppm); 93% in the series on Septoria tritici; 100% in the series with Sphaerotheca fuliginea (500 ppm); 100% in the series with Uromyces appendiculatus (500 ppm).
